In US20160213742A1, “COMPOSITIONS AND METHODS FOR THE TREATMENT OF FUNGAL INFECTIONS” (priority 2013, published 2016):
Values after ≈ are worked out from the molar mass of the structure shown.

Assays:
Type in all cases: cell-based
C. albicans ATCC 90028 = assay: microbe, parasite or virus in culture
Procedure: (§1) The test organisms consisted of strains from the Micromyx collection. Reference isolates were originally received from the American Type Culture Collection (ATCC; Manassas, Va.). Organisms received at Micromyx were initially streaked for isolation on Sabouraud dextrose or potato dextrose agar. Colonies were picked by swab from the medium and resuspended in the appropriate broth containing cryoprotectant. The suspensions were aliquoted into cryogenic vials and maintained at −80° C. Prior to testing, Candida isolates were streaked from the frozen vials on Sabouraud dextrose agar. The yeast isolates were incubated at overnight at 35° C. before use. The fungal isolates were incubated at least 7 days on Sabouraud dextrose agar slants at 35° C. before harvesting.
(§2) Isolates were tested in RPMI medium (Catalog No. SH30011.04; Lot No. AWA92121B; HyClone Labs, Logan, Utah) which was prepared according to CLSI guidelines. The pH of the medium was adjusted to 7.0 with 1 N NaOH. The medium was sterile filtered using a 0.2 μm PES filter and stored at 4° C. until used.
(§3) The MIC assay method employed automated liquid handlers to conduct serial dilutions and liquid transfers. Automated liquid handlers included the Multidrop 384 (Labsystems, Helsinki, Finland), Biomek 2000 and Biomek FX (Beckman Coulter, Fullerton Calif.). The wells in columns 2-12 in standard 96-well microdilution plates (Costar 3795) were filled with 150 μl of the correct diluent (50% DMSO for investigational compounds, 100% DMSO for comparator compounds). These would become the mother plates' from which ‘daughter’ or test plates would be prepared. Stocks were diluted to 40× the desired top concentration in the test plates in the indicated solvent, and 300 μL of the 40× stock was dispensed into the appropriate well in Column 1 of the mother plates. The Biomek 2000 was used to make serial serial 2-fold dilutions through Column 11 in the “mother plate”. The wells of Column 12 contained no drug and served as the organism growth control wells.
(§4) The daughter plates were loaded with 185 μL per well of RPMI described above using the Multidrop 384. The daughter plates were prepared using the Biomek FX which transferred 5 μL of drug solution from each well of a mother plate to the corresponding well of the daughter plate in a single step.
(§5) A standardized inoculum of each organism was prepared. For Candida, colonies were picked from the streak plate and a suspension was prepared in RPMI medium equal to a 0.5 McFarland standard, then diluted 1:100 in RPMI and transferred to compartments of sterile reservoirs divided by length (Beckman Coulter). For the Aspergillus isolates, previously prepared and quantitated suspensions were used to make dilutions in RPMI to reach 20× the final concentration. These dilutions were also transferred to compartments of sterile reservoirs divided by length (Beckman Coulter). The final concentration of the Aspergillus isolates was approximately 0.2-2.5×10^4 CFU/mL.
(§6) The Biomek 2000 was used to inoculate the plates. Daughter plates were placed on the Biomek 2000 work surface reversed so that inoculation took place from low to high drug concentration. The Biomek 2000 delivered 10 μL of standardized inoculum into each well. Thus, the wells of the daughter plates ultimately contained 185 μL of RPMI, 5 μL of drug solution, and 10 μL of inoculum. The final concentration of DMSO in the test well was 2.5% for the evaluated comparators and 1.25% for the investigational agents.
(§7) Plates were stacked 3 high, covered with a lid on the top plate, placed into plastic bags, and incubated at 35° C. for approximately 24-48 hr prior to reading. Plates were read when inoculum was confluent in growth wells. Plates were viewed from the bottom using a plate viewer. […] MICs were read where visible growth of the organism was inhibited. MECs were read where the growth shifted to a small, rounded, compact hyphal form as compared to the hyphal growth seen in the growth control well.

C. glabrata ATCC 90030 = assay: microbe, parasite or virus in culture
Procedure: as §1, §2, §3, §4, §5, §6, §7

C. krusei ATCC 14243 = assay: microbe, parasite or virus in culture
Procedure: as §1, §2, §3, §4, §5, §6, §7

[1] = system: C. parapsilosis ATCC 22019; assay: microbe, parasite or virus in culture
Procedure: as §1, §2, §3, §4, §5, §6, §7

A. flavus MX 5948 = assay: MEC assay (Example 31); conditions: RPMI pH 7.0, 35° C., 24-48 hr
Procedure: as §1, §2, §3, §4, §5, §6, §7

A. fumigatus ATCC 13073 = assay: MEC assay (Example 31); conditions: RPMI pH 7.0, 35° C., 24-48 hr
Procedure: as §1, §2, §3, §4, §5, §6, §7

A. fumigatus MX 5944 = assay: MEC assay (Example 31); conditions: RPMI pH 7.0, 35° C., 24-48 hr
Procedure: as §1, §2, §3, §4, §5, §6, §7

A. fumigatus MYA-3626 = assay: MEC assay (Example 31); conditions: RPMI pH 7.0, 35° C., 24-48 hr
Procedure: as §1, §2, §3, §4, §5, §6, §7

A. fumigatus MYA-4609 = assay: MEC assay (Example 31); conditions: RPMI pH 7.0, 35° C., 24-48 hr
Procedure: as §1, §2, §3, §4, §5, §6, §7

[2] = C. parapsilosis ATCC 22019, RPMI pH 7.0, 35° C., 24-48 hr

SMILES | MIC (C. albicans ATCC 90028; ATCC 90028, pH 7) | MIC (C. glabrata ATCC 90030; ATCC 90030, pH 7) | MIC (C. krusei ATCC 14243; ATCC 14243, pH 7) | MIC ([1]; ATCC 22019, pH 7) | MEC (A. flavus MX 5948) | MEC (A. fumigatus ATCC 13073) | MEC (A. fumigatus MX 5944) | MEC (A. fumigatus MYA-3626) | MEC (A. fumigatus MYA-4609) | MIC [1, 2] | MIC (C. albicans ATCC 90028; C. albicans ATCC 90028, RPMI pH 7.0, 35° C., 24-48 hr) | MIC (C. glabrata ATCC 90030; C. glabrata ATCC 90030, RPMI pH 7.0, 35° C., 24-48 hr) | MIC (C. krusei ATCC 14243; C. krusei ATCC 14243, RPMI pH 7.0, 35° C., 24-48 hr)
CC[C@H](C)C[C@H](C)CCCCCCCCC(=O)N[C@H]1C[C@@H](O)[C@@H](NCCN)NC(=O)[C@@H]2[C@@H](O)CCN2C(=O)[C@H]([C@H](O)CCNC(=O)CCNC(=O)[C@H](Cc2ccccc2)NC(=O)[C@H](CC(C)C)NC(=O)[C@H](CCSC)NC(=O)OCC(C)C)NC(=O)[C@H]([C@H](O)[C@@H](O)c2ccc(O)cc2)NC(=O)[C@@H]2C[C@@H](O)CN2C(=O)[C@H]([C@@H](C)O)NC1=O [Compound 5] | 2 µg/mL (≈ 1.21 µM) | 4 µg/mL (≈ 2.42 µM) | >4 µg/mL | >4 µg/mL |  |  |  |  |  |  |  |  | 
CC[C@H](C)C[C@H](C)CCCCCCCCC(=O)N[C@H]1C[C@@H](O)[C@@H](NCCNC(=O)CCNC(=O)[C@H](Cc2ccccc2)NC(=O)[C@H](CC(C)C)NC(=O)[C@H](CCSC)NC(=O)OCC(C)C)NC(=O)[C@@H]2[C@@H](O)CCN2C(=O)[C@H]([C@H](O)CCN)NC(=O)[C@H]([C@H](O)[C@@H](O)c2ccc(O)cc2)NC(=O)[C@@H]2C[C@@H](O)CN2C(=O)[C@H]([C@@H](C)O)NC1=O [Compound 6] | 2 µg/mL (≈ 1.21 µM) | 4 µg/mL (≈ 2.42 µM) | 8 µg/mL (≈ 4.83 µM) | >16 µg/mL |  |  |  |  |  |  |  |  | 
CC[C@H](C)C[C@H](C)CCCCCCCCC(=O)N[C@H]1C[C@@H](O)[C@@H](NCCN)NC(=O)[C@@H]2[C@@H](O)CCN2C(=O)[C@H]([C@H](O)CCNC(=O)CCNC(=O)[C@H](Cc2ccccc2)NC(=O)[C@H](CC(C)C)NC(=O)[C@H](CCSC)NC(C)=O)NC(=O)[C@H]([C@H](O)[C@@H](O)c2ccc(O)cc2)NC(=O)[C@@H]2C[C@@H](O)CN2C(=O)[C@H]([C@@H](C)O)NC1=O [Compound 7] | 2 µg/mL (≈ 1.25 µM) | 8 µg/mL (≈ 5.01 µM) | 16 µg/mL (≈ 10 µM) | 32 µg/mL (≈ 20 µM) | 1 µg/mL | 1 µg/mL | 1 µg/mL | 0.5 µg/mL | 0.5 µg/mL |  |  |  | 
CC[C@H](C)C[C@H](C)CCCCCCCCC(=O)N[C@H]1C[C@@H](O)[C@@H](NCCNC(=O)CCNC(=O)[C@H](Cc2ccccc2)NC(=O)[C@H](CC(C)C)NC(=O)[C@H](CCSC)NC(C)=O)NC(=O)[C@@H]2[C@@H](O)CCN2C(=O)[C@H]([C@H](O)CCN)NC(=O)[C@H]([C@H](O)[C@@H](O)c2ccc(O)cc2)NC(=O)[C@@H]2C[C@@H](O)CN2C(=O)[C@H]([C@@H](C)O)NC1=O [Compound 8] | 2 µg/mL (≈ 1.25 µM) | 4 µg/mL (≈ 2.5 µM) | 8 µg/mL (≈ 5.01 µM) | 32 µg/mL (≈ 20 µM) | 1 µg/mL | 1 µg/mL | 1 µg/mL | 1 µg/mL | 1 µg/mL |  |  |  | 
CC[C@H](C)C[C@H](C)CCCCCCCCC(=O)N[C@H]1C[C@@H](O)[C@@H](OCCNC(=O)CCNC(=O)[C@H](Cc2ccccc2)NC(=O)[C@H](CC(C)C)NC(=O)[C@H](CCSC)NC=O)NC(=O)[C@@H]2[C@@H](O)CCN2C(=O)[C@H]([C@H](O)CCN)NC(=O)[C@H]([C@H](O)[C@@H](O)c2ccc(O)cc2)NC(=O)[C@@H]2C[C@@H](O)CN2C(=O)[C@H]([C@@H](C)O)NC1=O [Compound 9] | 2 µg/mL (≈ 1.26 µM) | 8 µg/mL (≈ 5.05 µM) |  |  | 0.06 to 0.12 µg/mL | 0.06 to 0.12 µg/mL | 0.12 µg/mL | 0.12 µg/mL | 0.06 to 0.5 µg/mL | >16 to 32 µg/mL |  |  | 
CC[C@H](C)C[C@H](C)CCCCCCCCC(=O)N[C@H]1C[C@@H](O)[C@@H](OCCN)NC(=O)[C@@H]2[C@@H](O)CCN2C(=O)[C@H]([C@H](O)CCNC(=O)CCNC(=O)[C@H](Cc2ccccc2)NC(=O)[C@H](CC(C)C)NC(=O)[C@H](CCSC)NC=O)NC(=O)[C@H]([C@H](O)[C@@H](O)c2ccc(O)cc2)NC(=O)[C@@H]2C[C@@H](O)CN2C(=O)[C@H]([C@@H](C)O)NC1=O [Compound 10] | 2 µg/mL (≈ 1.26 µM) | 8 µg/mL (≈ 5.05 µM) | 16 µg/mL (≈ 10.1 µM) | 32 µg/mL (≈ 20.2 µM) | 0.12 µg/mL | 0.25 µg/mL | 0.12 µg/mL | 0.12 µg/mL | 0.12 µg/mL |  |  |  | 
CC[C@H](C)C[C@H](C)CCCCCCCCC(=O)N[C@H]1C[C@@H](O)[C@@H](OCCNC(=O)[C@H](Cc2ccccc2)NC(=O)[C@H](CC(C)C)NC(=O)[C@H](CCSC)NC=O)NC(=O)[C@@H]2[C@@H](O)CCN2C(=O)[C@H]([C@H](O)CCN)NC(=O)[C@H]([C@H](O)[C@@H](O)c2ccc(O)cc2)NC(=O)[C@@H]2C[C@@H](O)CN2C(=O)[C@H]([C@@H](C)O)NC1=O [Compound 12] | 1 to 2 µg/mL | 4 to 8 µg/mL | 8 to 16 µg/mL | 8 to 16 µg/mL | ≦0.03-0.12 μg/mL | ≦0.03-0.12 μg/mL | 0.12 to 0.25 µg/mL | 0.06 to 0.25 µg/mL | 0.06 to 0.12 µg/mL |  |  |  | 
CC[C@H](C)C[C@H](C)CCCCCCCCC(=O)N[C@H]1C[C@@H](O)[C@@H](NCCNC(=O)C(Cc2ccccc2)NC(=O)C(CC(C)C)NC(=O)C(CCSC)NC(=O)Nc2ccc(Cl)cc2)NC(=O)[C@@H]2[C@@H](O)CCN2C(=O)[C@H]([C@H](O)CCN)NC(=O)[C@H]([C@H](O)[C@@H](O)c2ccc(O)cc2)NC(=O)[C@@H]2C[C@@H](O)CN2C(=O)[C@H]([C@@H](C)O)NC1=O (stereo partly shown) [Compound 13a] |  |  |  |  |  |  |  |  |  | 32 µg/mL (≈ 19.5 µM) | 2 µg/mL (≈ 1.22 µM) | 8 µg/mL (≈ 4.88 µM) | 16 µg/mL (≈ 9.77 µM)
CC[C@H](C)C[C@H](C)CCCCCCCCC(=O)N[C@H]1C[C@@H](O)[C@@H](NCCN)NC(=O)[C@@H]2[C@@H](O)CCN2C(=O)[C@H]([C@H](O)CCNC(=O)CCC(=O)NCCOCCOCCNC(=O)[C@H](Cc2ccccc2)NC(=O)[C@H](CC(C)C)NC(=O)[C@H](CCSC)NC=O)NC(=O)[C@H]([C@H](O)[C@@H](O)c2ccc(O)cc2)NC(=O)[C@@H]2C[C@@H](O)CN2C(=O)[C@H]([C@@H](C)O)NC1=O [Compound 16] | 2 µg/mL (≈ 1.15 µM) | 32 µg/mL (≈ 18.4 µM) | >32 µg/mL | >32 µg/mL |  |  |  |  |  |  |  |  | 
CC[C@H](C)C[C@H](C)CCCCCCCCC(=O)N[C@H]1C[C@@H](O)[C@@H](NCCN)NC(=O)[C@@H]2[C@@H](O)CCN2C(=O)[C@H]([C@H](O)CCNC(=O)[C@H](CCCCN)NC=O)NC(=O)[C@H]([C@H](O)[C@@H](O)c2ccc(O)cc2)NC(=O)[C@@H]2C[C@@H](O)CN2C(=O)[C@H]([C@@H](C)O)NC1=O [Compound 25] | 0.12 µg/mL (≈ 0.096 µM) | 0.5 µg/mL (≈ 0.4 µM) | 2 µg/mL (≈ 1.6 µM) | 1 µg/mL (≈ 0.8 µM) |  |  |  |  |  |  |  |  | 
